Measured values taken from ChEMBL document CHEMBL1146411, “1-Hydroxyditerpenes from Two New Zealand Liverworts, Paraschistochila pinnatifolia and Trichocolea mollissima” (J Nat Prod, 1997).
≈ marks a conversion by molar mass, not a printed value. Calls of active or inactive are those of the source. The rule behind the calls is not given here.

Experiments:
[1] = tested on: P388; experiment: Cytotoxicity against mouse P388 cells; assay type: functional, cell-based
[2] = Cytotoxicity against […] BSC cells at 60 ug/disk; assay type: cell-based
[3] = tested on: Candida albicans; experiment: Antimicrobial activity against Candida albicans at 60 ug/disk; assay type: functional, organism-based

| Structure (SMILES) | IC50 [1] [µg/mL] | Activity [2] | Activity [3] |
| --- | --- | --- | --- |
| C=C[C@@]1(C)C=C2CC[C@@H]3C(C)(C)CC[C@H](O)[C@@]3(C)[C@@H]2CC1 | > 25 | Not Active | inactive |
| C[C@@H]1C[C@@]23CC[C@@H]4C(C)(C)CC[C@H](O)[C@@]4(C)[C@@H]2CC(=O)[C@@H]1C3 | 15 (≈ 49.3 µM) |  |  |
